# Patent publication US20130102595A1 (Curis, Inc., priority 2011, published 2013)
# pIC50: −log10 of the molar value.
# Tests used:
# CaPan1 = experiment: Cell proliferation assay (CellTiter-Glo); type: cell-based; settings: Homo sapiens, CAPAN-1; Pancreas; 72 hours, 0.5% fetal bovine serum; read-out: antiproliferative activity IC50, CaPan1
# Procedure: (§1) Cell Proliferation Assay:
# (§2) Cancer cell lines were plated at 5,000 to 10,000 per well in 96-well flat bottomed plates with various concentration of compounds. The cells were incubated with compounds for 72 hours in the presence of 0.5% of fetal bovine serum. Growth inhibition was accessed by adenosine triphosphate (ATP) content assay using Promega CellTiter-Glo kit. Promega CellTiter-Glo kit is an ATP monitoring system based on firefly luciferase. Briefly, 16 μl of mammalian cell lysis and substrate solution was added to 84 μl of culture medium per well to lyse the cells and stabilize the ATP. The mixture was shaken and incubated for 30 minutes and subsequently the luminescence was measured.
# MiaPaca1 = experiment: Cell proliferation assay (CellTiter-Glo); type: cell-based; settings: Pancreas; 72 hours, 0.5% fetal bovine serum; read-out: antiproliferative activity IC50, MiaPaca1
# Procedure: as §1, §2
# CaPan2 = experiment: Cell proliferation assay (CellTiter-Glo); type: cell-based; settings: Homo sapiens, Capan-2; Pancreas; 72 hours, 0.5% fetal bovine serum; read-out: antiproliferative activity IC50, CaPan2
# Procedure: as §1, §2
# SW1990 = experiment: Cell proliferation assay (CellTiter-Glo); type: cell-based; settings: Homo sapiens, Pancreas, 72 hours, 0.5% fetal bovine serum, read-out: antiproliferative activity IC50, SW1990
# Procedure: as §1, §2
# MDA-MB-231 = experiment: Cell proliferation assay (CellTiter-Glo); type: cell-based; settings: Homo sapiens, Breast, 72 hours, 0.5% fetal bovine serum, read-out: antiproliferative activity IC50, MDA-MB-231
# Procedure: as §1, §2
# Calu6 = experiment: Cell proliferation assay (CellTiter-Glo); type: cell-based; settings: Homo sapiens, Calu-6; NSCLC; 72 hours, 0.5% fetal bovine serum; read-out: antiproliferative activity IC50, Calu6
# Procedure: as §1, §2
# WiDr = experiment: Cell proliferation assay (CellTiter-Glo); type: cell-based; settings: Homo sapiens, Colon, 72 hours, 0.5% fetal bovine serum, read-out: antiproliferative activity IC50, WiDr
# Procedure: as §1, §2
# CFPAC-1 = experiment: Cell proliferation assay (CellTiter-Glo); type: cell-based; settings: Homo sapiens, Pancreas, 72 hours, 0.5% fetal bovine serum, read-out: antiproliferative activity IC50, CFPAC-1
# Procedure: as §1, §2
# PANC-1 = experiment: Cell proliferation assay (CellTiter-Glo); type: cell-based; settings: Homo sapiens, Pancreas, 72 hours, 0.5% fetal bovine serum, read-out: antiproliferative activity IC50, PANC-1
# Procedure: as §1, §2
# PI3Kα (p110α/p85α) = target: T1, PI3Kα (p110α/p85α) (Homo sapiens, UniProt P42336); experiment: PI3Kα ADP-Glo assay; type: biochemical; settings: 20 μM PIP2, 10 μM ATP, 30 minutes
# T1 construct: GST (N); made in house; host or cells: Baculovirus-infected Sf9 cells
# Summary of the method: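 Recombinant full-length human GST-p110α/His-p85α, co-expressed in Sf9 cells, was incubated 30 min at room temperature with 20 μM PIP2 and 10 μM ATP. The buffer was 50 mM HEPES pH 7.4, 150 mM NaCl, 5 mM MgCl2, 1 mM DTT, 3 µM orthovanadate and 0.5% DMSO. ADP formed was detected by ADP-Glo luminescence.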
# [1] = target: T2, mTor serine/threonine protein kinase (Homo sapiens, UniProt P42345); experiment: mTor kinase radioisotope assay; type: biochemical; settings: 70 uM ATP, 40 minutes; read-out: m-TOR IC50
# T2 construct: FLAG; made in house; host or cells: Baculovirus expression system in Sf21 cells
# Summary of the method: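 FLAG-tagged full-length recombinant human mTor from baculovirus/Sf21, incubated with p70S6K C-terminal fragment (2 mg/ml) and 70 uM ATP plus 33P-ATP tracer in 50 mM HEPES pH 7.5, 3 mM MnCl2, 40 min at room temperature. Phosphoric acid stop, filtermat capture, scintillation counting; IC50 from sigmoidal dose-response fit.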
# PI3Kδ (p110δ/p85α) = target: T3, PI3Kδ (p110δ/p85α) (Homo sapiens, UniProt O00329); experiment: PI3Kδ ADP-Glo assay; type: biochemical; settings: 20 μM PIP2, 10 μM ATP, 90 minutes
# T3 construct: GST (N); made in house; host or cells: Baculovirus-infected Sf9 cells
# Procedure: (c) an In Vitro Assay which Determines the Ability of a Test Compound to Inhibit PI3Kδ.
# (§3) Activity of PI3Kδ was measured using ADP-Glo assay from Promega. PI3Kδ, a complex of N-terminal GST-tagged recombinant full-length human p110δ (GenBank, Accession No. NM_005026) and untagged recombinant full length human p85α (GenBank Accession No. XM—043865) were co-expressed in a Baculovirus infected Sf9 cell expression system. The ADP-Glo assay was performed to measure the amount of ADP generated from ATP hydrolysis coupled with PIP2 phosphorylation by the purified recombinant PI3Kδ (p110δ/p85α). PI3Kδ was incubated with 20 μM PIP2 substrate in the reaction buffer (10 mM Tris-HCl, pH 7.5, 50 mM NaCl, 5 mM MgCl2, 10 μM ATP and 0.5% DMSO) for 90 minutes at room temperature. The ADP generated was then detected by ADP-Glo assay from Promega, a luminescent ADP detection assay. The ADP-Glo assay is performed in two steps; first, after the kinase reaction, ADP-Glo Reagent is added to terminate the kinase reaction and deplete the remaining ATP. Second, the Kinase Detection Reagent is added to simultaneously convert ADP to ATP and allow the newly synthesized ATP to be measured using a luciferase/luciferin reaction.
# PI3Kγ (p120γ) = target: T4, PI3Kγ (p120γ) (Homo sapiens, UniProt P48736); experiment: PI3Kγ ADP-Glo assay; type: biochemical; settings: 20 μM PIP2, 10 μM ATP, 90 minutes
# T4 construct: His (N); made in house; host or cells: Baculovirus-infected Sf9 cells
# Procedure: (d) an In Vitro Assay which Determines the Ability of a Test Compound to Inhibit PI3Kγ.
# Activity of PI3Kγ was measured using ADP-Glo assay from Promega. PI3Kγ, N-terminal His-tagged recombinant full-length human p120γ (GenBank, Accession No. AF327656) was expressed in a Baculovirus infected Sf9 cell expression system. The ADP-Glo assay was performed to measure the amount of ADP generated from ATP hydrolysis coupled with PIP2 phosphorylation by the purified recombinant PI3Kγ […]. PI3Kγ was incubated with 20 μM PIP2 substrate in the reaction buffer (10 mM Tris-HCl, pH 7.5, 50 mM NaCl, 5 mM MgCl2, 10 μM ATP and 0.5% DMSO) for 90 minutes at room temperature. The ADP generated was then detected by ADP-Glo assay from Promega, a luminescent ADP detection assay. The ADP-Glo assay is performed in two steps; first, after the kinase reaction, ADP-Glo Reagent is added to terminate the kinase reaction and deplete the remaining ATP. Second, the Kinase Detection Reagent is added to simultaneously convert ADP to ATP and allow the newly synthesized ATP to be measured using a luciferase/luciferin reaction.
# PI3Kβ (p110β/p85α) = target: T5, PI3Kβ (p110β/p85α) (Homo sapiens, UniProt P42338); experiment: PI3Kβ ADP-Glo assay; type: biochemical; settings: 20 μM PIP2, 10 μM ATP, 90 minutes
# T5 construct: His (N); made in house; host or cells: Baculovirus-infected Sf9 cells
# Procedure: (B) an In Vitro Assay which Determines the Ability of a Test Compound to Inhibit PI3Kβ.
# as §3, with “PI3Kβ” for “PI3Kδ”, “[…],” for “PI3Kδ,”, “His-tagged” for “GST-tagged”, “p110β” for “p110δ”, “NM_006219)” for “NM_005026)”, “PI3Kβ (p110β/p85α). PI3Kβ” for “PI3Kδ (p110δ/p85α). PI3Kδ”
# [2] = test system: HDACs (HeLa cell nuclear extracts); experiment: HDAC enzymatic activity, Biomol Color de Lys system; type: biochemical; settings: 1 hour, 25° C.
# Summary of the method: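 HeLa nuclear extract incubated with serially diluted compound and […] artificial substrate in 50 mM Tris/Cl pH 8.0, 137 mM NaCl, 2.7 mM KCl, 1 mM MgCl2. Run 1 h at 25 °C, stopped with developer. Fluorescence read (ex 350-380, em 440-460 nm); IC50 from sigmoidal dose-response fit.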
# SWI-116 = experiment: Cell proliferation assay (CellTiter-Glo); type: cell-based; settings: Colon; 72 hours, 0.5% fetal bovine serum; read-out: antiproliferative activity IC50, SWI-116
# Procedure: as §1, §2
# OPM-2 = experiment: Cell proliferation assay (CellTiter-Glo); type: cell-based; settings: Homo sapiens, Multiple Myeloma, 72 hours, 0.5% fetal bovine serum, read-out: antiproliferative activity IC50, OPM-2
# Procedure: as §1, §2
# A549 = experiment: Cell proliferation assay (CellTiter-Glo); type: cell-based; settings: Homo sapiens, NSCLC, 72 hours, 0.5% fetal bovine serum, read-out: antiproliferative activity IC50, A549
# Procedure: as §1, §2
# T1 sequence (P42336 whole entry): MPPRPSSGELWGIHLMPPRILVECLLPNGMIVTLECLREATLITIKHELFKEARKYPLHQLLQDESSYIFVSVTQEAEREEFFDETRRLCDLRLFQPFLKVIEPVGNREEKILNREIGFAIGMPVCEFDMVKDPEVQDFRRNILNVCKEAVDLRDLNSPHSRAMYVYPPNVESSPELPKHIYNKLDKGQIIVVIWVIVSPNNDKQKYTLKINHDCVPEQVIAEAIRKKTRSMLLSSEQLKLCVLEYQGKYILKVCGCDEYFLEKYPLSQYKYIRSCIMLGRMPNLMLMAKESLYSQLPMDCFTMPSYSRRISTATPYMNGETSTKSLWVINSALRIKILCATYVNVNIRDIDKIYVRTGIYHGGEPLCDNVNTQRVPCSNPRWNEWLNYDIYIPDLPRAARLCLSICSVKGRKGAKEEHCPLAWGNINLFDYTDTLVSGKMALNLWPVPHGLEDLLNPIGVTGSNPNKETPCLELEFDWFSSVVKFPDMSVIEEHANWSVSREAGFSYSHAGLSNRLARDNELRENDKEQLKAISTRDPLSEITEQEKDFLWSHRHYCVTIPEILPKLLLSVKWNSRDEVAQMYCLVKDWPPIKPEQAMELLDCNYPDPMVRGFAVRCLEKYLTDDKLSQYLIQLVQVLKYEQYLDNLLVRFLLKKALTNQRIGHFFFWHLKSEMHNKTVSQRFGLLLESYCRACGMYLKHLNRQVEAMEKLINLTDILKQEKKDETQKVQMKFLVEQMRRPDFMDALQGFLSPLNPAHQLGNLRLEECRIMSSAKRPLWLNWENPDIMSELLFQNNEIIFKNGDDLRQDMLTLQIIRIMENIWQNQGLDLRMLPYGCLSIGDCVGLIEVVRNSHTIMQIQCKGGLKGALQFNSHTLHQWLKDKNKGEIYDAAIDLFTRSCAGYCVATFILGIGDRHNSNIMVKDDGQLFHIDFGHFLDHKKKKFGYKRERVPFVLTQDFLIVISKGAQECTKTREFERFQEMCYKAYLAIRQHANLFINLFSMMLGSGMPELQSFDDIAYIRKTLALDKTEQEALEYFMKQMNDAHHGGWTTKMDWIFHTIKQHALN
# T1 sequence (P27986 whole entry partner): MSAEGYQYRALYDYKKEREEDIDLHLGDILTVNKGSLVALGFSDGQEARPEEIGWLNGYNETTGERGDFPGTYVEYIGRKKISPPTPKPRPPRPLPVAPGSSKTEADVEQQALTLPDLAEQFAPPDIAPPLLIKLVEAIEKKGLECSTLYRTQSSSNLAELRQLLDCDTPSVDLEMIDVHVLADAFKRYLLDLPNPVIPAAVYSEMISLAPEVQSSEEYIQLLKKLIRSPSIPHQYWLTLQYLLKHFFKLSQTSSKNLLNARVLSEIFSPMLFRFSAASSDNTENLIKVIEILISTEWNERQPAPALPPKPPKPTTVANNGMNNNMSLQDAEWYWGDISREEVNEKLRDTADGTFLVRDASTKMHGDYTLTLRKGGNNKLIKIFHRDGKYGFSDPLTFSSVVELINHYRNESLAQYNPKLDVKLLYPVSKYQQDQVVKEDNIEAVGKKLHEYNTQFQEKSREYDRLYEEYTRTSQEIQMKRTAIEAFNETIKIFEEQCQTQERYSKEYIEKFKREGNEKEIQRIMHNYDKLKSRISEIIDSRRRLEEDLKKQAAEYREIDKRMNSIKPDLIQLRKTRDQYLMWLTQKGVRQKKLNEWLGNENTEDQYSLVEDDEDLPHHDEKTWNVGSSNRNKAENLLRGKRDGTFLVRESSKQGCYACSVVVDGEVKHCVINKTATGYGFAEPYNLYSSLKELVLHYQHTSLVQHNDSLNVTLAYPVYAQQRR
# T5 sequence (P42338 whole entry): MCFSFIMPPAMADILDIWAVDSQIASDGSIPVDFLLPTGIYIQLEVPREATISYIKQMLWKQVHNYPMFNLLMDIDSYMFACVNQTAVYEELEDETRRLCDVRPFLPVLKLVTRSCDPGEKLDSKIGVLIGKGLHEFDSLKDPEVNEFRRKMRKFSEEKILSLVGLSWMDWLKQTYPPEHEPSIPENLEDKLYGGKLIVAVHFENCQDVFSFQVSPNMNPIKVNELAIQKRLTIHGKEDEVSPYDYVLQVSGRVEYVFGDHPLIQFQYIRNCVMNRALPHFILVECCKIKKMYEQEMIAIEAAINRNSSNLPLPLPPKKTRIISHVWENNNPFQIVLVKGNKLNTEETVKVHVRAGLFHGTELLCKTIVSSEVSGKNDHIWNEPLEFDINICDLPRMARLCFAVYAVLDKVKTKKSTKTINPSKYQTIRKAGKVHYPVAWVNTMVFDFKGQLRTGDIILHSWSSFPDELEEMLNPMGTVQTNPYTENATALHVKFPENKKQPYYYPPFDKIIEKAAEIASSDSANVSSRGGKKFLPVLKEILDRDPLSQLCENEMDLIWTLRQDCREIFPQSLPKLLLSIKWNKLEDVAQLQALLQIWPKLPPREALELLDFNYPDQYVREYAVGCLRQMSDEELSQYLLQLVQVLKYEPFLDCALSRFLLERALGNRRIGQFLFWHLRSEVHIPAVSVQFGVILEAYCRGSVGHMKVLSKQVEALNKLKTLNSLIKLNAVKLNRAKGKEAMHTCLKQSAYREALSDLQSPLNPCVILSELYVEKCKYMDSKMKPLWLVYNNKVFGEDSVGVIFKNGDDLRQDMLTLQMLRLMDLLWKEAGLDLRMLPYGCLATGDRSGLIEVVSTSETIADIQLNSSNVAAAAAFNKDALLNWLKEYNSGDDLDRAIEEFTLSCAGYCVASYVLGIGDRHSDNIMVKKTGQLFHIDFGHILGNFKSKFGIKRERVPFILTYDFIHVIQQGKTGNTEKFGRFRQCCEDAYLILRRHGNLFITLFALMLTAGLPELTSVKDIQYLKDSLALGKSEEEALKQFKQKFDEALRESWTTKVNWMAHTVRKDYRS
# T5 sequence (P27986 whole entry partner): as the sequence (P27986 whole entry partner) above
# T4 sequence (P48736 whole entry): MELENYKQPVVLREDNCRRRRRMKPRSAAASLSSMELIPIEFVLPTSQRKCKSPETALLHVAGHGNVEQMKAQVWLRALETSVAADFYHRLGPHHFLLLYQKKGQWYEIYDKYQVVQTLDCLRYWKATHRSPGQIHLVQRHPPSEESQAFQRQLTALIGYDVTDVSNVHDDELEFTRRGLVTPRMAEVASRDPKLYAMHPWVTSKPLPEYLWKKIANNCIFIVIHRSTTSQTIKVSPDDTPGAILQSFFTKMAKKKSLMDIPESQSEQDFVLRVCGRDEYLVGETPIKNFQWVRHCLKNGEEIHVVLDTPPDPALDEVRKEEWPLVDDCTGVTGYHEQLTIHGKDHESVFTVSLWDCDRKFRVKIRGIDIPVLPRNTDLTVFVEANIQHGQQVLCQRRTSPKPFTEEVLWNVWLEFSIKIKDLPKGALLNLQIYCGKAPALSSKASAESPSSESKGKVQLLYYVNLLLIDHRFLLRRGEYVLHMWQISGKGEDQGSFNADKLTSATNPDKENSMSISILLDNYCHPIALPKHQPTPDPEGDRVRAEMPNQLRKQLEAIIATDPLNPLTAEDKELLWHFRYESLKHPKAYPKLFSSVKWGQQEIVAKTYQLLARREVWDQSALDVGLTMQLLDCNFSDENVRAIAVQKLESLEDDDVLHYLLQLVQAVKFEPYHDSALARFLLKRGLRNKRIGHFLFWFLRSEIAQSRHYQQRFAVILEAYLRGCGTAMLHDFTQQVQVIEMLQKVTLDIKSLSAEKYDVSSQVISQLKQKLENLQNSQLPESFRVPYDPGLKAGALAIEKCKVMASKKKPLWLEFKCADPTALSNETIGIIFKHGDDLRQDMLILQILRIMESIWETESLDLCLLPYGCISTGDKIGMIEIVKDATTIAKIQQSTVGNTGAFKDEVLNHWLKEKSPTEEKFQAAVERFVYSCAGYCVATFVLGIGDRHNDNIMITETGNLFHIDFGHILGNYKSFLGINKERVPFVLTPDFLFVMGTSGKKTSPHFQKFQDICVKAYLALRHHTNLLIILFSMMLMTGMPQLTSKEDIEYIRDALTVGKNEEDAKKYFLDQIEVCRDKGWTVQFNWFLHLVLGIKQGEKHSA
# T3 sequence (O00329 whole entry): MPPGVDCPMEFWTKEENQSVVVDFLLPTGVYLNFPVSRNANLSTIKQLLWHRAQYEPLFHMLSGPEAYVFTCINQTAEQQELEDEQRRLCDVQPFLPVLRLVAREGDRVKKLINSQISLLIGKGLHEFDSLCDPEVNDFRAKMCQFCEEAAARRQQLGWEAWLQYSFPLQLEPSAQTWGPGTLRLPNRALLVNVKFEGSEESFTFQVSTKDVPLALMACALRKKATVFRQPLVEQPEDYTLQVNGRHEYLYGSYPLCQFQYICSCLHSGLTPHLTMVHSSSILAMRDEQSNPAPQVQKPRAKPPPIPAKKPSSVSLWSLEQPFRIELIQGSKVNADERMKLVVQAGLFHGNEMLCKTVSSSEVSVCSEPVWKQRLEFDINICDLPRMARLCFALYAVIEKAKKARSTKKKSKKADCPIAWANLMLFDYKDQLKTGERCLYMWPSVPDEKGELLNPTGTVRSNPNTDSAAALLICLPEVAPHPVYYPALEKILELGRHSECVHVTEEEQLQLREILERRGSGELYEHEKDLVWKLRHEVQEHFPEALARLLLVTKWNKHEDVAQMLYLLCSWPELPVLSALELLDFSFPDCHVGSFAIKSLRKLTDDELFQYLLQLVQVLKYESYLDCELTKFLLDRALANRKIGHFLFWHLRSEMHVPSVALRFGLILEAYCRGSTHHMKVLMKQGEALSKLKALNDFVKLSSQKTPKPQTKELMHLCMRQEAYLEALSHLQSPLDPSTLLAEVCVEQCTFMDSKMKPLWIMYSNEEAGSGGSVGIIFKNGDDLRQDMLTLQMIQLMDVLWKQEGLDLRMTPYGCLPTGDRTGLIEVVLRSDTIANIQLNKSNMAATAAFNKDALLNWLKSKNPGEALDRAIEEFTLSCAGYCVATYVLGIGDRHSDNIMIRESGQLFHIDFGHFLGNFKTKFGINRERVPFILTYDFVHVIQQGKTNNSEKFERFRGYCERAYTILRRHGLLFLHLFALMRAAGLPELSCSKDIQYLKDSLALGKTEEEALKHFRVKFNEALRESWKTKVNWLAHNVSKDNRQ
# T3 sequence (P27986 whole entry partner): as the sequence (P27986 whole entry partner) above
Structure (SMILES),pIC50 (MiaPaca1),pIC50 (SW1990),pIC50 (MDA-MB-231),pIC50 (Calu6),pIC50 (PANC-1),pIC50 (PI3Kα (p110α/p85α)),pIC50 [1],melting point [°C],pIC50 (PI3Kδ (p110δ/p85α)),pIC50 (PI3Kγ (p120γ)),pIC50 (PI3Kβ (p110β/p85α)),pIC50 [2],pIC50 (A549),pIC50 (CaPan1),pIC50 (CaPan2),pIC50 (WiDr),pIC50 (CFPAC-1),pIC50 (SWI-116),pIC50 (OPM-2)
O=C(NO)c1cnc(N2CCN(Cc3cc4nc(-c5cccc6[nH]ncc56)nc(N5CCOCC5)c4s3)CC2)nc1 [Compound 14],–,–,–,–,–,> 7.00,5.00 to 6.00,209 to 221,6.00 to 7.00,> 7.00,> 7.00,> 7.00,–,–,–,–,–,–,–
"O=C(NO)c1cnc(NCc2cc3nc(-c4cccc5[nH]ncc45)nc(N4CCOCC4)c3s2)nc1 [Compound 53, 2-((2-(1H-indazol-4-yl)-4-morpholinothieno[3,2-d]pyrimidin-6-yl)methylamino)-N-hydroxypyrimidine-5-carboxamide]",–,–,–,–,–,> 7.00,–,234 to 237,> 7.00,> 7.00,> 7.00,> 7.00,–,–,–,–,–,–,–
"O=C(NO)c1cnc(N(CCO)Cc2cc3nc(-c4cccc5[nH]ncc45)nc(N4CCOCC4)c3s2)nc1 [Compound 86, 2-(((2-(1H-indazol-4-yl)-4-morpholinothieno[3,2-d]pyrimidin-6-yl)methyl)(2-hydroxyethyl)amino)-N-hydroxypyrimidine-5-carboxamide]",–,–,–,–,–,> 7.00,–,190 to 194,–,–,> 7.00,> 7.00,–,–,–,–,–,–,–
"CN(Cc1cc2nc(-c3ccc(N)nc3)nc(N3CCOCC3)c2s1)c1ncc(C(=O)NO)cn1 [Compound 110, 2-(((2-(6-aminopyridin-3-yl)-4-morpholinothieno[3,2-d]pyrimidin-6-yl)methyl)(methyl)amino)-N-hydroxypyrimidine-5-carboxamide]",–,–,–,7.00 to 8.00,–,> 7.00,> 7.00,175 to 181,–,–,–,> 7.00,–,–,–,7.00 to 8.00,–,–,> 8.00
"CN(Cc1cc2nc(-c3cnc(N)nc3)nc(N3CCOCC3)c2s1)c1ncc(C(=O)NO)cn1 [Compound 115, 2-(((2-(2-aminopyrimidin-5-yl)-4-morpholinothieno[3,2-d]pyrimidin-6-yl)methyl)(methyl)amino)-N-hydroxypyrimidine-5-carboxamide]",–,–,–,7.00 to 8.00,–,> 7.00,> 7.00,175 to 181,–,–,–,> 7.00,7.00 to 8.00,–,–,6.00 to 7.00,–,–,7.00 to 8.00

# More lines, main results first:
pIC50 (MiaPaca1),pIC50 (SW1990),pIC50 (MDA-MB-231),pIC50 (Calu6),pIC50 (PANC-1),pIC50 (PI3Kα (p110α/p85α)),pIC50 [1],melting point [°C],pIC50 (PI3Kδ (p110δ/p85α)),pIC50 (PI3Kγ (p120γ)),pIC50 (PI3Kβ (p110β/p85α)),pIC50 [2],pIC50 (A549),Structure (SMILES),pIC50 (CaPan1),pIC50 (CaPan2),pIC50 (WiDr),pIC50 (CFPAC-1),pIC50 (SWI-116),pIC50 (OPM-2)
5.00 to 6.00,7.00 to 8.00,< 5.00,6.00 to 7.00,5.00 to 6.00,–,–,–,–,–,–,–,–,"Cn1c(=O)n(-c2ccc(C(C)(C)C#N)cc2)c2c3cc(-c4cnc5ccccc5c4)ccc3ncc21 [BEZ-235, 2-methyl-2-(4-(3-methyl-2-oxo-8-(quinolin-3-yl)-2,3-dihydro-1H-imidazo[4,5-c]quinolin-1-yl)phenyl)propanenitrile, reference compound]",6.00 to 7.00,5.00 to 6.00,5.00 to 6.00,5.00 to 6.00,–,–
–,–,–,–,–,> 7.00,6.00 to 7.00,–,–,–,–,> 7.00,–,CC(c1cc2nc(-c3cccc4[nH]ncc34)nc(N3CCOCC3)c2s1)N(C)c1ncc(C(=O)NO)cn1 (centres unmarked) [Compound 70],–,–,–,–,7.00 to 8.00,–
7.00 to 8.00,7.00 to 8.00,7.00 to 8.00,7.00 to 8.00,7.00 to 8.00,> 7.00,> 7.00,160 to 164,–,–,–,> 7.00,–,"CN(Cc1cc2nc(-c3cccc(CO)c3)nc(N3CCOCC3)c2s1)c1ncc(C(=O)NO)cn1 [Compound 138, N-hydroxy-2-(((2-(3-(hydroxymethyl)phenyl)-4-morpholinothieno[3,2-d]pyrimidin-6-yl)methyl)(methyl)amino)pyrimidine-5-carboxamide]",7.00 to 8.00,7.00 to 8.00,7.00 to 8.00,7.00 to 8.00,–,> 8.00
